In patent publication US8524290B2, “Non-occluding nasal moisturizer and methods of use” (priority 2010, dated 2013):

Tested on: nasal epithelium
Assay: Transepidermal water loss of the nasal epithelium (TEWAMETER 300 evaporation meter)
Assay type: in vivo
Conditions: single nostril, after application, compared with basal state
Experimental: A single nostril is administered the test composition of Example 1 or a comparator solution, and transepidermal water loss is measured using an evaporation meter ([…] 300; Courage+Khazaka electronic GmbH, Germany) using the original probe. Subjects are positioned in a seated posture and hold their breath during measurements. Basal measurements are performed prior to application of a test composition.

O [water]
transepidermal water loss: Little change
